According to patent publication US12139488B2, “Pyrido[3,2-d]pyrimidine compounds uses thereof for treating a proliferative disease” (Universite de Montreal, priority 2021, dated 2024):

Legend:
[1] = test system: pERK in HCT-116 cells (KRAS G13D); assay: Phospho-ERK inhibition (AlphaLISA SureFire Ultra p-ERK 1/2), HCT116; assay type: cell-based, human; conditions: RAS-mutant HCT116 cells, FIG. 1
Method in brief: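 Cells plated in RPMI-1640 with 5% FBS, kept overnight at 37° C, then treated 1 h with ten-point dilutions (top usually 10 μM; 0.5% DMSO). Lysate p-ERK1/2 (Thr202/Tyr204) read by AlphaLISA SureFire Ultra. % inhibition set against DMSO after subtracting the trametinib background; IC50 from four-parameter fit.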

[2] = test system: pERK and pMEK in RAS-mutant HCT-116 cells; assay: Immunoblot analysis of pERK and pMEK in HCT-116 cells; assay type: cell-based, human; conditions: 1 h treatment, FIG. 2
Description: For immunoblotting analysis, 500,000 HCT-116 cells were plated in 1 mL of complete RPMI-1640 growth medium in 24-well flat-bottomed transparent dishes (Costar). Cells were maintained overnight at 37° C. under 5% CO2 before treatment with compounds' dilution series for one hour.
Cells were then washed once in PBS and lized in 250 μL of Igepal Lysis Buffer (50 mM Tris-HCl pH 7.5, 150 mM NaCl, 1% Igepal-CA630, 1 mM EDTA, 10% Glycerol) supplemented with Leupeptin, Aprotinin, PMSF, phosphatase inhibitor cocktail (Sigma) and Na3VO4 at 4° C. for 15 minutes with gentle rocking. Cell extracts were then cleared by centrifugation at 20,000 g at 4° C. for 10 minutes. Cleared lysates were then transferred on ice in fresh tubes and then boiled in sample loading buffer (100 mM Tris-HCl pH 6.8, 4% SDS, 0.2% bromophenol blue, 20% glycerol, 200 mM p-mercaptoethanol) for 5 minutes prior to fractionation by SDS-PAGE and transfer to nitrocellulose membranes (PALL). […]

YMIN of pERK IC50 dose response curve (paradoxical induction of pERK signaling) [1]: ~−600%
SMILES: CCCS(=O)(=O)Nc1ccc(F)c(C(=O)c2c[nH]c3ncc(Cl)cc23)c1F [PLX4720, reference compound]
paradoxical induction of pERK or pMEK signaling (immunoblot) [2]: induces the pathway
